Literature values in patent US10427959B2, “Method and system for the autonomous self-limiting generation of chlorine dioxide” (TRUOX, INC., priority 2016, dated 2019).
Like-named read-outs stand apart in the source and are kept apart here.

Conditions: saturated aqueous solution

Row | Structure (SMILES) | solubility (at 25° C.) | solubility (at 20° C.)
1 | CC1(C)C(=O)N(Cl)C(=O)N1Br [BCDMH, 1,3-bromo-chloro-5,5-dimethylhydantoin] | 0.2 wt % | 
2 | CC1(C)C(=O)N(Br)C(=O)N1Br [DBDMH, 1,3-dibromo-5,5-dimethylhydantoin] |  | 0.1 wt %
